Reference: patent US20180214395A1 (priority 2017, published 2018)
Where “and” joins values, the source holds several entries; their conditions need not be identical. Equal entries are not always repeated. Entries after “also recorded” stand apart in the source; their conditions may differ.

Assays:
[1] = system: BDNF; assay: BDNF levels (ELISA) in MAD study subjects; format: in vivo, human; settings: for BDNF, individual subjects: hydrochloride
[2] = in vivo
[3] = Novelty-suppressed feeding test (NSFT); format: in vivo; settings: rat; 72 hr after single dose; ketamine 10 mg/kg ip, d-methadone 20 mg/kg sc
[4] = Forced swim test; format: in vivo, rat; settings: for Immobility, Mean frequency / Swimming, Mean frequency: single administration 24 hours prior, 60 counts per subject; for Immobility, Mean Diff. (Fisher's PLSD) / Swimming, Mean Diff. (Fisher's PLSD): Vehicle minus treatment
[5] = Female urine sniffing test (FUST); format: in vivo; settings: rat; 24 hr after single dose; ketamine 10 mg/kg ip, d-methadone 20 mg/kg sc
[6] = Serum glucose (colorimetric kit) in MAD 25 mg subjects; format: in vivo, human; settings: 25 mg per day for 10 days; for Mean serum glucose change vs baseline: six treated subjects; for serum glucose, individual subjects: hydrochloride
[7] = MAD study: pupillary constriction; format: in vivo, human; settings: mean (SD)
[8] = Modified Mini Mental State (3MS) in patients with chronic cancer pain (phase I-2a study); format: in vivo, human; settings: 40 mg every 12 hours for 12 days
[9] = human, in vivo
[10] = clinical; settings: both, human, in vivo

Which results are given for `CCC(=O)C(C[C@H](C)N(C)C)(c1ccccc1)c1ccccc1` [d-methadone]?
Subjects with increase in BDNF levels post treatment vs pre-treatment ([1]; 25 mg a day for ten days): 6 of 6; BDNF serum levels ([1]; 25 mg, healthy volunteers): significantly increases; BDNF levels after treatment vs pre-treatment ([1]; 50 mg and 75 mg doses, not statistically significant against placebo): consistently showed an increase; BDNF, individual subjects ([1]; Day 2 hr 4, 25 mg a day oral): BDNF 3.603 ng/L; also recorded: BDNF 2.529 ng/L; also recorded: BDNF 2.038 ng/L; also recorded: BDNF 1.862 ng/L; also recorded: BDNF 8.995 ng/L; also recorded: BDNF 2.750 ng/L; BDNF, individual subjects ([1]; Day 6 hr 4, 25 mg a day oral): 4.820 ng/mL and 2.920 ng/mL and 2.348 ng/mL and 2.458 ng/mL and 3.790 ng/mL; BDNF, individual subjects ([1]; Day 10 hr 4, 25 mg a day oral): 4.004 ng/mL and 10.697 ng/mL and 2.853 ng/mL and 4.347 ng/mL and 5.459 ng/mL and 3.733 ng/mL; BDNF, individual subjects ([1]; Pre-Treatment (baseline), MAD 25 mg subjects): 1.143 ng/mL and BDNF 0.612 ng/mL and 0.376 ng/mL and 0.460 ng/mL and 0.497 ng/mL and 1.922 ng/mL; BDNF_T0 Mean ([1]; baseline, w/o placebo, N 6): .83100 ng/mL; BDNF_D2 Mean ([1]; day 2, 25 mg a day, w/o placebo, N 6): 3.63 ng/mL; BDNF_D6 Mean ([1]; day 6, 25 mg a day, w/o placebo, N 5): 3.267 ng/mL; BDNF_D10 Mean ([1]; day 10, 25 mg a day, w/o placebo, N 6): 5.182 ng/mL; TEAE: any event ([2]; both, human): 5 n (%) [number of events]; TEAE: dizziness ([2]; both, human): 1 n (%) [number of events]; Tolerability [2]: well tolerated; NSFT: latency to eat in a novel open field [3]: significantly decreased; Immobility, Mean frequency ([4]; 10 mg/kg): 31.400; Swimming, Mean frequency ([4]; 10 mg/kg): 20.200; Immobility, Mean frequency ([4]; 20 mg/kg): 23.556; Swimming, Mean frequency ([4]; 20 mg/kg): 32.667; Immobility, Mean frequency ([4]; 40 mg/kg): 23.200; Swimming, Mean frequency ([4]; 40 mg/kg): 26.200; Immobility, Mean Diff. (Fisher's PLSD) ([4]; 10 mg/kg): 17.600; Swimming, Mean Diff. (Fisher's PLSD) ([4]; 10 mg/kg): −12.978; Immobility, Mean Diff. (Fisher's PLSD) ([4]; 20 mg/kg): 25.444; Swimming, Mean Diff. (Fisher's PLSD) ([4]; 20 mg/kg): −25.444; Immobility, Mean Diff. (Fisher's PLSD) ([4]; 40 mg/kg): 25.800; Swimming, Mean Diff. (Fisher's PLSD) ([4]; 40 mg/kg): −18.978; FUST: time sniffing water [5]: no effect; FUST: time spent sniffing female urine vs vehicle [5]: increased; Mean serum glucose change vs baseline ([6]; day 10): −0.08 mmol/I; Mean serum glucose change vs baseline ([6]; day 12): −0.43 mmol/I; serum glucose, individual subjects ([6]; Day-10): 3.2 mmol/I and 4.9 mmol/I; serum glucose, individual subjects ([6]; Day-12): 4.9 mmol/I (3×) and 4.1 mmol/I; Greatest mean pupillary constriction (MPC) ([7]; MAD 25 mg, Day 9): −1.32 (0.553) mm; Greatest mean pupillary constriction (MPC) ([7]; MAD 50 mg, Day 6): −1.43 (0.175) mm; Greatest mean pupillary constriction (MPC) ([7]; MAD 75 mg, Day 5): −2.24 (0.619) mm; Patients with 3MS improvement by at least one point [8]: five out of six; Maximum QTcF interval observed ([9]; both): 462 ms; Model-predicted ΔΔQT effect at geometric mean plasma concentration ([9]; both): 16.0 to 21.0 ms; QTc, individual prolonged value ([9]; male): 434 ms; AUC(0-inf) ([10]; 25 mg): 13000 ng·h/mL; Tmax ([10]; 25 mg, Tmax): 2.35 h; AUC(0-inf) ([10]; 50 mg): 32000 ng·h/mL; Cmax ([10]; 50 mg): 587 ng/mL; AUC(0-inf) ([10]; 75 mg): 28900 ng·h/mL; Cmax ([10]; 75 mg): 563 ng/mL
